Test [1] has as its target T1, LRRK2 G2019S (Homo sapiens, UniProt Q5S007, G2019S).
T1 construct: purchased Life Technologies PV4881
Kind of test: LRRK2 Kinase Activity Assay (LanthaScreen TR-FRET), G2019S. Conditions: recombinant G2019S-LRRK2, 25 μM ATP, 400 nM LRRKtide, 60 min; class symbols. The format is biochemical. Put shortly: (§1)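 IC50 fitted to the compound-dependent loss of TR-FRET signal. Each kinase form, wild type or G2019S, phosphorylated the fluorescein-tagged ERM-derived LRRKtide in the presence of ATP and compound dilutions over 60 min at room temperature; quench contained 10 mM EDTA and 2 nM anti-pERM antibody (final).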

Test [2] has as its target T2, LRRK2 WT (Homo sapiens, UniProt Q5S007).
T2 construct: purchased Life Technologies PR8604B
Put plainly: LRRK2 Kinase Activity Assay (LanthaScreen TR-FRET), wild type. The class given is biochemical. As to conditions: recombinant wild type LRRK2, 25 μM ATP, 400 nM LRRKtide, 60 min; class symbols. Put shortly:
as §1

IC50 data for 27 compounds are collected here from patent US20230148214A1, “INDAZOLES AND AZAINDAZOLES AS LRRK2 INHIBITORS” (ESCAPE Bio, Inc., priority 2020, published 2023).

The IC50 is the midpoint of a concentration-inhibition curve.

T1 sequence (Q5S007 whole entry G2019S): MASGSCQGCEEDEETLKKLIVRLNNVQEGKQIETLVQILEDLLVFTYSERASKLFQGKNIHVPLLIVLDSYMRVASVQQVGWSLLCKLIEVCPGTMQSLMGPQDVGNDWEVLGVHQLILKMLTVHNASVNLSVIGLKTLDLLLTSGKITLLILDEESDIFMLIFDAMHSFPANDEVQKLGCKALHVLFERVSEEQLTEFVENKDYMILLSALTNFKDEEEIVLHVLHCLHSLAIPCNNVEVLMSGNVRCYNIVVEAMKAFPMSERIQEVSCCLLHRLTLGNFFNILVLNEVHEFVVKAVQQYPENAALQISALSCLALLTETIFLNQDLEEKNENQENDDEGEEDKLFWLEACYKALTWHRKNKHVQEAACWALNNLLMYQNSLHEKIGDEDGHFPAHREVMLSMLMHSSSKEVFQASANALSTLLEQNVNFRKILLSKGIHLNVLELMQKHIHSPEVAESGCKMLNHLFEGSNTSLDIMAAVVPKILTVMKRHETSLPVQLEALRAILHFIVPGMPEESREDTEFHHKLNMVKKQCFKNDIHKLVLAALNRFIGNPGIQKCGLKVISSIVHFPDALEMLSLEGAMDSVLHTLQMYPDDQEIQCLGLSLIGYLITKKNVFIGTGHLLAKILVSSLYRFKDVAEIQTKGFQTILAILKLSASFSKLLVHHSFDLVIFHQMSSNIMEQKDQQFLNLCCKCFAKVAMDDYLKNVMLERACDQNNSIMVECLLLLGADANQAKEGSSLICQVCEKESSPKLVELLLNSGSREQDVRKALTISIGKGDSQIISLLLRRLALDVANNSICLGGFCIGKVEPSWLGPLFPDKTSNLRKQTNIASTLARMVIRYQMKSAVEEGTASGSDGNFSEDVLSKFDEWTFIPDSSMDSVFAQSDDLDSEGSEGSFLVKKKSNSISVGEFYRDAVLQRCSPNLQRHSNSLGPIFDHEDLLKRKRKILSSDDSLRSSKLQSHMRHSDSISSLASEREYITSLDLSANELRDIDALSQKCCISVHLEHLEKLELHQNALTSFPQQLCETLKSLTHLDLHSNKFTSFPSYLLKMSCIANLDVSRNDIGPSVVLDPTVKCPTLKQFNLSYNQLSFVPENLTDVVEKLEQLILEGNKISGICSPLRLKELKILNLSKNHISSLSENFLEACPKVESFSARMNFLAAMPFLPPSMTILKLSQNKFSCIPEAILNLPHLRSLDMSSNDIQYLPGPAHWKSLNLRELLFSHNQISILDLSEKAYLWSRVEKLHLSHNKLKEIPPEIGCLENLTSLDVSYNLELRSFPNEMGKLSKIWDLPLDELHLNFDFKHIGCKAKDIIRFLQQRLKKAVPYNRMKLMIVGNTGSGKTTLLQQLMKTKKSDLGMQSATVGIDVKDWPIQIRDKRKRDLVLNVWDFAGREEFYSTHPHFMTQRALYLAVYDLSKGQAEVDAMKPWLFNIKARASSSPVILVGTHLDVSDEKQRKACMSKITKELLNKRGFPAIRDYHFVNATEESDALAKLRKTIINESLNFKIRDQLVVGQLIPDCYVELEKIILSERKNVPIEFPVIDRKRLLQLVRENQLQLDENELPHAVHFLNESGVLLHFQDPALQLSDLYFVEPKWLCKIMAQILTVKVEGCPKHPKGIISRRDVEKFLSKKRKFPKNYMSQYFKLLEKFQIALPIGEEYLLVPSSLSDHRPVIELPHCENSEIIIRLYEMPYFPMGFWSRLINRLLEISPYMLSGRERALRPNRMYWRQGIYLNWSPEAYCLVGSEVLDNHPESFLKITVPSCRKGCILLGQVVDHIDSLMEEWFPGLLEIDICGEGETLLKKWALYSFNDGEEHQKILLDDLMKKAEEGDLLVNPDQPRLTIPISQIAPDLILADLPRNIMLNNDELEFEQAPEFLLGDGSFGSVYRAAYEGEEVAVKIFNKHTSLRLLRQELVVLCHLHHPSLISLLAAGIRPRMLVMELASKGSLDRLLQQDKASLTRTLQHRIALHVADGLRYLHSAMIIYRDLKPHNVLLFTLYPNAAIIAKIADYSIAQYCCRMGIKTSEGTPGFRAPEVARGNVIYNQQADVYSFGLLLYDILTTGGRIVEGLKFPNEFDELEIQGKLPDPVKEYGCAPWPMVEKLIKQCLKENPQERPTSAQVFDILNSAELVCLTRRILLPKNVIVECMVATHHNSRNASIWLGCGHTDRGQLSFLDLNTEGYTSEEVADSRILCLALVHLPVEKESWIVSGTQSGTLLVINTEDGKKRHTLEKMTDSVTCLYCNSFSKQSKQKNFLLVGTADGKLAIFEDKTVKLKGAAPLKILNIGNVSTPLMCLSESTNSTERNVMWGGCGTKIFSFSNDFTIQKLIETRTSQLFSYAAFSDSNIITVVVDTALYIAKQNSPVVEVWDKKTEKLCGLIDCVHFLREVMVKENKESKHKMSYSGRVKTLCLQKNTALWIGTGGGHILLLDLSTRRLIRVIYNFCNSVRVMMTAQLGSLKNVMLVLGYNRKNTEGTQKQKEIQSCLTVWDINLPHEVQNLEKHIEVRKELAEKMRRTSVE
T2 sequence (Q5S007 whole entry): as the sequence (Q5S007 whole entry G2019S) above, with S2019G counted along it

For the compound `N#Cc1cnc2c(c1)CCC[C@@H]2Nc1ccc2[nH]nc(Br)c2c1` (single isomer, unassigned) [Example 125, enantiomer 2, 8-((3-Bromo-1H-indazol-5-yl)amino)-5,6,7,8-tetrahydroquinoline-3-carbonitrile], the IC50 in test [1] was in the range of 100 to 1000 nM; in test [2], 1000 to 10000 nM.
For `N#Cc1cnc2c(c1)CCC[C@@H]2Nc1ccc2[nH]nc(Cl)c2c1` (single isomer, unassigned) [Example 126, enantiomer 1, 8-((3-Chloro-1H-indazol-5-yl)amino)-5,6,7,8-tetrahydroquinoline-3-carbonitrile] the same measures were 1000 to 10000 nM and 1000 to 10000 nM.
For the compound `N#Cc1cnc2c(c1)CCC[C@@H]2Nc1ccc2[nH]nc(Cl)c2c1` (single isomer, unassigned) [Example 126, enantiomer 2, 8-((3-Chloro-1H-indazol-5-yl)amino)-5,6,7,8-tetrahydroquinoline-3-carbonitrile], the IC50 in test [1] was < 100 nM; in test [2] it was 100 to 1000 nM.
The matching figures for `Cc1c(C#N)ccc2c1CC[C@@H]2Nc1ccc2[nH]nc(I)c2c1` (single isomer, unassigned) [Example 127, enantiomer 1, 1-((3-Iodo-1H-indazol-5-yl)amino)-4-methyl-2,3-dihydro-1H-indene-5-carbonitrile]: 100 to 1000 nM and 100 to 1000 nM.
For `N#Cc1ccc2c(c1)CC[C@H]2Nc1ccc2[nH]nc(I)c2c1` (single isomer, unassigned) [Example 128, enantiomer 1, 1-((3-Iodo-1H-indazol-5-yl)amino)-2,3-dihydro-1H-indene-5-carbonitrile], the IC50 in test [1] and in test [2] was 100 to 1000 nM in each case.
On to `N#Cc1ccc2c(c1)CC[C@H]2Nc1ccc2[nH]nc(I)c2c1` (single isomer, unassigned) [Example 128, enantiomer 2, 1-((3-Iodo-1H-indazol-5-yl)amino)-2,3-dihydro-1H-indene-5-carbonitrile], for which the IC50 was < 100 nM in test [1] and 100 to 1000 nM in test [2].
The matching figures for `Cc1n[nH]c2ccc(N[C@H]3CCc4c(C#N)cccc43)cc12` (single isomer, unassigned) [Example 129, enantiomer 1, 1-((3-Methyl-1H-indazol-5-yl)amino)-2,3-dihydro-1H-indene-4-carbonitrile]: 100 to 1000 nM and 1000 to 10000 nM.
The matching figures for `Cc1n[nH]c2ccc(N[C@H]3CCc4ccc(C#N)cc43)cc12` (single isomer, unassigned) [Example 130, enantiomer 1, 3-((3-Methyl-1H-indazol-5-yl)amino)-2,3-dihydro-1H-indene-5-carbonitrile]: 100 to 1000 nM and 1000 to 10000 nM.
For the compound `Cc1n[nH]c2ccc(N[C@H]3CCc4ccc(C#N)cc43)cc12` (single isomer, unassigned) [Example 130, enantiomer 2, 3-((3-Methyl-1H-indazol-5-yl)amino)-2,3-dihydro-1H-indene-5-carbonitrile], the IC50 in test [1] was < 100 nM; in test [2] it was 100 to 1000 nM.
The matching figures for `Cc1cc(C#N)cc2c1[C@@H](Nc1ccc3[nH]nc(-c4cnco4)c3c1)CC2` (single isomer, unassigned) [Example 131, enantiomer 1, 7-Methyl-1-((3-(oxazol-5-yl)-1H-indazol-5-yl)amino)-2,3-dihydro-1H-indene-5-carbonitrile]: < 100 nM and < 100 nM.
For `N#Cc1cc(F)c2c(c1)CC[C@H]2Nc1ccc2[nH]nc(-c3cnco3)c2c1` (single isomer, unassigned) [Example 132, enantiomer 1, 5-((5-Cyano-7-fluoro-2,3-dihydro-1H-inden-1-yl)amino)-3-(oxazol-5-yl)-1H-indazol-2-ium] the same measures were < 100 nM and < 100 nM.
Consider `N#Cc1ccc2c(n1)CCC[C@H]2Oc1ccc2[nH]nc(C3CC3)c2c1` (single isomer, unassigned) [Example 133, enantiomer 1, 5-((3-Cyclopropyl-1H-indazol-5-yl)oxy)-5,6,7,8-tetrahydroquinoline-2-carbonitrile], for which the IC50 was in the range of 100 to 1000 nM in test [1] and 1000 to 10000 nM in test [2].
`N#Cc1ccc2c(n1)CCC[C@H]2Oc1ccc2[nH]nc(C3CC3)c2c1` (single isomer, unassigned) [Example 133, enantiomer 2, 5-((3-Cyclopropyl-1H-indazol-5-yl)oxy)-5,6,7,8-tetrahydroquinoline-2-carbonitrile]: the half-maximal inhibitory concentration (IC50) is < 100 nM in test [1] and 1000 to 10000 nM in test [2].
Consider `N#Cc1ccc2c(c1)CC[C@@H]2Nc1ccc2[nH]nc(C3CC3)c2c1` (single isomer, unassigned) [Example 134, enantiomer 1, 1-((3-Cyclopropyl-1H-indazol-5-yl)amino)-2,3-dihydro-1H-indene-5-carbonitrile], for which the IC50 in test [1] was in the range of 100 to 1000 nM; in test [2], 1000 to 10000 nM.
Take `N#Cc1ccc2c(c1)CC[C@@H]2Nc1ccc2[nH]nc(C3CC3)c2c1` (single isomer, unassigned) [Example 134, enantiomer 2, 1-((3-Cyclopropyl-1H-indazol-5-yl)amino)-2,3-dihydro-1H-indene-5-carbonitrile]: the IC50 in test [1] was 100 to 1000 nM; in test [2], 1000 to 10000 nM.
Consider `N#Cc1ccc2c(n1)CCC[C@@H]2Oc1ccc2[nH]nc(I)c2c1` (single isomer, unassigned) [Example 135, enantiomer 1, 5-((3-Iodo-1H-indazol-5-yl)oxy)-5,6,7,8-tetrahydroquinoline-2-carbonitrile], for which the IC50 is < 100 nM in test [1] and 100 to 1000 nM in test [2].
For `N#Cc1ccc2c(n1)CCC[C@@H]2Oc1ccc2[nH]nc(I)c2c1` (single isomer, unassigned) [Example 135, enantiomer 2, 5-((3-Iodo-1H-indazol-5-yl)oxy)-5,6,7,8-tetrahydroquinoline-2-carbonitrile] the same measures were < 100 nM and 100 to 1000 nM.
For `N#Cc1cnc2c(c1)CCC[C@@H]2Oc1ccc2[nH]nc(C3CC3)c2c1` (single isomer, unassigned) [Example 136, enantiomer 1, 8-((3-Cyclopropyl-1H-indazol-5-yl)oxy)-5,6,7,8-tetrahydroquinoline-3-carbonitrile] the same measures were < 100 nM and 100 to 1000 nM.
The matching figures for `N#Cc1cnc2c(c1)CCC[C@@H]2Oc1ccc2[nH]nc(I)c2c1` (single isomer, unassigned) [Example 137, enantiomer 1, 8-((3-Iodo-1H-indazol-5-yl)oxy)-5,6,7,8-tetrahydroquinoline-3-carbonitrile]: < 100 nM and < 100 nM.
Turning to `N#Cc1cnc2c(c1)CCC[C@@H]2Oc1ccc2[nH]nc(I)c2c1` (single isomer, unassigned) [Example 137, enantiomer 2, 8-((3-Iodo-1H-indazol-5-yl)oxy)-5,6,7,8-tetrahydroquinoline-3-carbonitrile], the IC50 in test [1] was < 100 nM; in test [2] it was 100 to 1000 nM.
As for `N#Cc1ccc2c(c1)C(F)(F)C[C@@H]2Nc1ccc2[nH]nc(-c3cnco3)c2c1` (single isomer, unassigned) [Example 138, enantiomer 1, 3,3-Difluoro-1-((3-(oxazol-5-yl)-1H-indazol-5-yl)amino)-2,3-dihydro-1H-indene-5-carbonitrile], the IC50 in test [1] and in test [2] was < 100 nM in each case.
For `N#Cc1ccc2c(c1)C(F)(F)C[C@@H]2Nc1ccc2[nH]nc(-c3cnco3)c2c1` (single isomer, unassigned) [Example 138, enantiomer 2, 3,3-Difluoro-1-((3-(oxazol-5-yl)-1H-indazol-5-yl)amino)-2,3-dihydro-1H-indene-5-carbonitrile], the IC50 was < 100 nM in test [1] and 100 to 1000 nM in test [2].
On to `N#Cc1ccc2c(c1)CCC[C@@H]2Nc1ccc2[nH]nc(CC3CC3)c2c1` (single isomer, unassigned) [Example 139, enantiomer 1, 5-((3-(Cyclopropylmethyl)-1H-indazol-5-yl)amino)-5,6,7,8-tetrahydronaphthalene-2-carbonitrile], for which the concentration for half-maximal inhibition (IC50) in test [1] and in test [2] was 1000 to 10000 nM throughout.
On to `N#Cc1ccc2c(c1)CCC[C@@H]2Nc1ccc2[nH]nc(CC3CC3)c2c1` (single isomer, unassigned) [Example 139, enantiomer 2, 5-((3-(Cyclopropylmethyl)-1H-indazol-5-yl)amino)-5,6,7,8-tetrahydronaphthalene-2-carbonitrile], for which the IC50 in test [1] was < 100 nM; in test [2], 1000 to 10000 nM.
Regarding `N#Cc1ccc2c(c1)C1(CC1)C[C@@H]2Nc1ccc2[nH]nc(-c3cnco3)c2c1` (single isomer, unassigned) [Example 140, enantiomer 1, 3′-((3-(Oxazol-5-yl)-1H-indazol-5-yl)amino)-2′,3′-dihydrospiro[cyclopropane-1,1′-indene]-6′-carbonitrile], the IC50 was < 100 nM in test [1] and 100 to 1000 nM in test [2].
For `N#Cc1ccc2c(c1)C1(CC1)C[C@@H]2Nc1ccc2[nH]nc(-c3cnco3)c2c1` (single isomer, unassigned) [Example 140, enantiomer 2, 3′-((3-(Oxazol-5-yl)-1H-indazol-5-yl)amino)-2′,3′-dihydrospiro[cyclopropane-1,1′-indene]-6′-carbonitrile] the same measures were < 100 nM and 100 to 1000 nM.
As to `N#Cc1cnc2c(c1)CCC[C@@H]2Oc1ccc2[nH]nc(-c3cnn(C(F)F)c3)c2c1` (single isomer, unassigned) [Example 141, enantiomer 1, 8-((3-(1-(Difluoromethyl)-1H-pyrazol-4-yl)-1H-indazol-5-yl)oxy)-5,6,7,8-tetrahydroquinoline-3-carbonitrile], the IC50 in test [1] and in test [2] was < 100 nM throughout.
